In publication PMC6277555, “Short Symmetric-End Antimicrobial Peptides Centered on β-Turn Amino Acids Unit Improve Selectivity and Stability” (Frontiers in Microbiology, 2018):
≈ marks a conversion by molar mass, not a printed value. No end group written: not given here.

Experiments:
[1] = tested on: B. subtilis CMCC 63501; assay type: cell-based, Bacillus subtilis
Description: (§1) The minimal inhibitory concentration (MIC) was determined according to a previously described method ([Chou et al., 2016]). Bacteria were cultured overnight to mid-log phase in MHB at 37°C and then diluted to give final concentrations ranging from 2 × 10^5 to 7 × 10^5 CFU/mL. Then, 50 μL of serial twofold dilutions of the peptides were added to each well in 96-well microtiter plates with a mixed solution containing 0.01% acetic acid and 0.2% bovine serum albumin (BSA, Sigma) was used to dissolve and dilute the peptides. Then, equal amounts of bacterial aliquots were incubated with the above peptide solution for 18–24 h at 37°C. The experiment was performed in triplicate using three replicates for each peptide and each bacterium. The broth was employed as a negative control and the broth with microbial cells was used as a positive control. The lowest concentration of peptide that prevented visible turbidity was defined as the MIC.

[2] = tested on: S. aureus; experiment: Time killing assay; assay type: cell-based, Staphylococcus aureus; details: mean of three independent assays
Description: (§2) The ability of peptides to kill bacterial cells was further investigated by analyzing the fraction of cell survival upon peptide treatment at various exposure times according to a previously described method ([Wiradharma et al., 2012]). Briefly, E. coli and S. aureus were treated at MIC and 2 × MIC concentrations with peptides. At various time periods (0, 5, 10, 30, 60, 90, 120, and 150 min), microbial suspensions were diluted at three different dilutions and plated on MHA plates. Microbial colonies were formed and counted after 24 h of incubation. The results were presented as the mean data from three independent assays.

[3] = tested on: B. pyocyaneum ATCC 27853; assay type: cell-based, Bacterium pyocyaneum
Description: as §1

[4] = tested on: E. coli ATCC25922; assay type: cell-based, Escherichia coli; details: for MIC / MIC, CaCl2 / MIC, Control / MIC, FeCl3 / MIC, Heat (100°C) / MIC, KCl / MIC, MgCl2 / MIC, NH4Cl / MIC, NaCl / MIC, ZnCl2: ATCC25922; for MIC, pH 4.0: ATCC25922, pH 4; for MIC, pH 6.0: ATCC25922, pH 6; for MIC, pH 8.0: ATCC25922, pH 8; for MIC, pH 10.0: ATCC25922, pH 10
Description: as §1, with “18-24” for “18–24”, “MIC. The condition sensitivity of peptides was tested in an MIC assay in different environments, including salt sensitivity, thermal sensitivity and different pH values similar to our previous method ([[…] et al., 2008]; [Ma et al., 2012]). […] For the heat resistance experiments, the peptides were incubated at 100°C for 30 min and cooled on ice for 10 min. […] The determination methods for these MIC assays were same as described above. To test the effects of serum on the antimicrobial activities of the peptides, human serum was dissolved in MHB to reach final concentrations of 25 and 50%. The determination methods for these MIC assays were same as described above.” for “MIC.”

[5] = tested on: S. typhimurium ATCC 7731; assay type: cell-based, Salmonella entericaserovar Typhimurium
Description: as §1

[6] = tested on: E. coli UB1005; assay type: cell-based, Escherichia coli
Description: as §1

[7] = tested on: S. epidermidis ATCC 12228; assay type: cell-based, Staphylococcus epidermidis
Description: as §1

[8] = RP-HPLC retention time as measure of relative hydrophobicity; assay type: physicochemical; details: analytical RP-HPLC; hydrophobicity increases with retention time
Description: These peptides' […] identified via matrix-assisted laser desorption/ionization time-of-flight mass spectrometry (MALDI-TOF MS, Linear Scientific Inc., United States), using α-cyano-4-hydroxycinnamic acid as the matrix. […] Quantitative peptides were dissolved in deionized water and stored at -20°C before the assessments. The rest of the peptides were stored as powders at -20°C to prevent peptide degradation. The structures and molecular weights of the peptides were verified by MALDI-TOF MS. […] The relative hydrophobicity of the symmetric-end peptides was reliably reflected by their different HPLC retention times, and the hydrophobicity increased with increasing HPLC retention times ([Lee et al., 2014]; [Zhu et al., 2014]). The HPLC retention times for […]

[9] = tested on: S. aureus ATCC 43300; assay type: cell-based, Staphylococcus aureus
Description: as §1

[10] = tested on: E. coli; experiment: Time killing assay; assay type: cell-based, Escherichia coli; details: mean of three independent assays
Description: as §2

[11] = tested on: S. faecalis ATCC 29212; assay type: cell-based, Streptococcus faecalis
Description: as §1

[12] = tested on: S. pullorum C79-13; assay type: cell-based, Salmonella pullorum
Description: as §1

[13] = tested on: S. aureus ATCC 29213; assay type: cell-based, Staphylococcus aureus; details: for MIC / MIC, CaCl2 / MIC, Control / MIC, FeCl3 / MIC, Heat (100°C) / MIC, KCl / MIC, MgCl2 / MIC, NH4Cl / MIC, NaCl / MIC, ZnCl2: ATCC 29213; for MIC, pH 4.0: ATCC 29213, pH 4; for MIC, pH 6.0: ATCC 29213, pH 6; for MIC, pH 8.0: ATCC 29213, pH 8; for MIC, pH 10.0: ATCC 29213, pH 10
Description: as §1, with “18-24” for “18–24”, “MIC. The condition sensitivity of peptides was tested in an MIC assay in different environments, including salt sensitivity, thermal sensitivity and different pH values similar to our previous method ([[…] et al., 2008]; [Ma et al., 2012]). […] For the heat resistance experiments, the peptides were incubated at 100°C for 30 min and cooled on ice for 10 min. […] The determination methods for these MIC assays were same as described above. To test the effects of serum on the antimicrobial activities of the peptides, human serum was dissolved in MHB to reach final concentrations of 25 and 50%. The determination methods for these MIC assays were same as described above.” for “MIC.”

[14] = tested on: Gram-negative and Gram-positive bacterial strains; experiment: Geometric mean of MICs and therapeutic index; assay type: cell-based; details: for GM (geometric mean of the MIC values): all ten tested strains; for Therapeutic index: from MHC and GM
Description: (§3) The hemolytic activity of the peptides was detected using a previously described modified method ([Wang et al., 2015]). One milliliter of fresh hRBCs was obtained from a healthy donor (Zhihua Wang, Harbin, China) in a polycarbonate tube containing heparin. The collected hRBCs were centrifuged at 1000 × g for 5 min at 4°C and resuspended in PBS buffer (pH 7.2). The hRBCs were washed three times and then incubated with an equal volume of the respective peptide dissolved in PBS for 1 h at 37°C. Then, the hRBC suspension was placed into a 96-well microtiter plater with 50 μL of tested peptide solution at different concentrations and the mixture was incubated for 1 h at 37°C. […] The minimum hemolytic concentrations (MHCs) were defined as the peptide concentrations resulting in 5% hemolysis.
as §1

[15] = tested on: hRBCs; experiment: Hemolytic activity; assay type: cell-based, human; details: peptide concentration resulting in 5% hemolysis of hRBCs; PBS, 1 h, 37°C
Description: as §3

CC(C)C[C@H](NC(=O)[C@H](CCCNC(=N)N)NC(=O)CNC(=O)CNC(=O)[C@@H](N)CCCNC(=N)N)C(=O)N[C@H]1CSSC[C@@H](C(=O)N[C@H](C(=O)NCC(=O)N[C@@H](CCCNC(=N)N)C(N)=O)C(C)C)NC(=O)[C@H](C(C)C)NC(=O)[C@@H]2CSSC[C@H](NC(=O)[C@H](Cc3ccc(O)cc3)NC1=O)C(=O)N[C@@H](CCCNC(=N)N)C(=O)N[C@@H](CCCNC(=N)N)C(=O)N[C@@H](CCCNC(=N)N)C(=O)N[C@@H](Cc1ccccc1)C(=O)N2 [PG-1, reference compound]
MIC [1]: 8 µM (≈ 17.2 µg/mL) | Time to kill S. aureus ([2]; peptide at 1 × MIC): 5 min | Time to kill S. aureus ([2]; peptide at 2 × MIC): 10 min | MIC [3]: 16 µM (≈ 34.5 µg/mL) | MIC [4]: 2 µM (≈ 4.31 µg/mL) | MIC, CaCl2 [4]: 4 µM (≈ 8.62 µg/mL) | MIC, Control [4]: 2 µM (≈ 4.31 µg/mL) | MIC, FeCl3 [4]: 4 µM (≈ 8.62 µg/mL) | MIC, Heat (100°C) [4]: 8 µM (≈ 17.2 µg/mL) | MIC, KCl [4]: 2 µM (≈ 4.31 µg/mL) | MIC, MgCl2 [4]: 2 µM (≈ 4.31 µg/mL) | MIC, NH4Cl [4]: 2 µM (≈ 4.31 µg/mL) | MIC, NaCl [4]: 4 µM (≈ 8.62 µg/mL) | MIC, ZnCl2 [4]: 2 µM (≈ 4.31 µg/mL) | MIC, pH 4.0 [4]: 4 μM | MIC, pH 6.0 [4]: 4 μM | MIC, pH 8.0 [4]: 4 μM | MIC, pH 10.0 [4]: 4 μM | MIC [5]: 8 µM (≈ 17.2 µg/mL) | MIC [6]: 2 µM (≈ 4.31 µg/mL) | MIC [7]: 16 µM (≈ 34.5 µg/mL) | Retained time (HPLC retention time) [8]: 12.56 min | MIC [9]: 2 µM (≈ 4.31 µg/mL) | Time to kill E. coli ([10]; peptide at 1 × MIC): 10 min | Time to kill E. coli ([10]; peptide at 2 × MIC): 10 min | MIC [11]: 16 µM (≈ 34.5 µg/mL) | MIC [12]: 2 µM (≈ 4.31 µg/mL) | MIC [13]: 8 µM (≈ 17.2 µg/mL) | MIC, CaCl2 [13]: 16 µM (≈ 34.5 µg/mL) | MIC, Control [13]: 8 µM (≈ 17.2 µg/mL) | MIC, FeCl3 [13]: 8 µM (≈ 17.2 µg/mL) | MIC, Heat (100°C) [13]: 16 µM (≈ 34.5 µg/mL) | MIC, KCl [13]: 8 µM (≈ 17.2 µg/mL) | MIC, MgCl2 [13]: 8 µM (≈ 17.2 µg/mL) | MIC, NH4Cl [13]: 8 µM (≈ 17.2 µg/mL) | MIC, NaCl [13]: 32 µM (≈ 69 µg/mL) | MIC, ZnCl2 [13]: 8 µM (≈ 17.2 µg/mL) | MIC, pH 4.0 [13]: 8 μM | MIC, pH 6.0 [13]: 8 μM | MIC, pH 8.0 [13]: 8 μM | MIC, pH 10.0 [13]: 16 μM

IHKFWRGGRWFKHI-NH2 [GG]
MIC [1]: 16 µM | MIC [3]: 16 µM | MIC [4]: 8 µM | MIC [5]: 64 µM | MIC [6]: 8 µM | MIC [7]: 32 µM | Retained time (HPLC retention time) [8]: 10.24 min | MIC [9]: 32 µM | MIC [11]: 32 µM | MIC [12]: 8 µM | MIC [13]: 16 µM

IHKFWRPGRWFKHI-NH2 [PP]
MIC [1]: 8 µM | MIC [3]: 4 µM | MIC [4]: 8 µM | MIC, CaCl2 [4]: 4 µM | MIC, Control [4]: 8 µM | MIC, FeCl3 [4]: 4 µM | MIC, Heat (100°C) [4]: 8 µM | MIC, KCl [4]: 4 µM | MIC, MgCl2 [4]: 2 µM | MIC, NH4Cl [4]: 2 µM | MIC, NaCl [4]: 8 µM | MIC, ZnCl2 [4]: 2 µM | MIC, pH 4.0 [4]: 8 μM | MIC, pH 6.0 [4]: 8 μM | MIC, pH 8.0 [4]: 16 μM | MIC, pH 10.0 [4]: 8 μM | MIC [5]: 8 µM | MIC [6]: 4 µM | MIC [7]: 16 µM | MIC [9]: 16 µM | GM (geometric mean of the MIC values) [14]: 8.0 µM | Therapeutic index [14]: 32.0 | MHC (minimum hemolytic concentration) [15]: >128 µM | MIC [11]: 8 µM | MIC [12]: 4 µM | MIC [13]: 16 µM | MIC, CaCl2 [13]: 32 µM | MIC, Control [13]: 16 µM | MIC, FeCl3 [13]: 8 µM | MIC, Heat (100°C) [13]: 16 µM | MIC, KCl [13]: 16 µM | MIC, MgCl2 [13]: 16 µM | MIC, NH4Cl [13]: 8 µM | MIC, NaCl [13]: 128 µM | MIC, ZnCl2 [13]: 4 µM | MIC, pH 4.0 [13]: 16 μM | MIC, pH 6.0 [13]: 16 μM | MIC, pH 8.0 [13]: 16 μM | MIC, pH 10.0 [13]: 16 μM

IHFKWRRWKFHI-NH2 [Qna]
MIC [1]: 64 µM | MIC [3]: 32 µM | MIC [4]: 32 µM | MIC [5]: 32 µM | MIC [6]: 16 µM | MIC [7]: 32 µM | MIC [9]: 32 µM | GM (geometric mean of the MIC values) [14]: 34.3 µM | Therapeutic index [14]: 7.5 | MHC (minimum hemolytic concentration) [15]: >128 µM | MIC [11]: 64 µM | MIC [12]: 32 µM | MIC [13]: 32 µM

IHKFWRRWFKHI-NH2 [Qa]
MIC [1]: 32 µM | MIC [3]: 16 µM | MIC [4]: 16 µM | MIC [5]: 16 µM | MIC [6]: 8 µM | MIC [7]: 16 µM | MIC [9]: 16 µM | GM (geometric mean of the MIC values) [14]: 14.9 µM | Therapeutic index [14]: 17.2 | MHC (minimum hemolytic concentration) [15]: >128 µM | MIC [11]: 16 µM | MIC [12]: 16 µM | MIC [13]: 8 µM
